In ChEMBL document CHEMBL5528025, “Design, synthesis and biological evaluation of carbamate derivatives incorporating multifunctional carrier scaffolds as pseudo-irreversible cholinesterase inhibitors for the treatment of Alzheimer's disease” (Eur J Med Chem, 2024):
Active and inactive are the calls of the source. The rule behind the calls is not given here.

Legend:
[1] = target: T1, Acetylcholinesterase (Homo sapiens, UniProt P22303)
Description: Inhibition of human erythrocyte AChE incubated for 10 mins

[2] = target: T2, Cholinesterase (Homo sapiens, UniProt P06276)
T2 sequence (P06276 whole entry): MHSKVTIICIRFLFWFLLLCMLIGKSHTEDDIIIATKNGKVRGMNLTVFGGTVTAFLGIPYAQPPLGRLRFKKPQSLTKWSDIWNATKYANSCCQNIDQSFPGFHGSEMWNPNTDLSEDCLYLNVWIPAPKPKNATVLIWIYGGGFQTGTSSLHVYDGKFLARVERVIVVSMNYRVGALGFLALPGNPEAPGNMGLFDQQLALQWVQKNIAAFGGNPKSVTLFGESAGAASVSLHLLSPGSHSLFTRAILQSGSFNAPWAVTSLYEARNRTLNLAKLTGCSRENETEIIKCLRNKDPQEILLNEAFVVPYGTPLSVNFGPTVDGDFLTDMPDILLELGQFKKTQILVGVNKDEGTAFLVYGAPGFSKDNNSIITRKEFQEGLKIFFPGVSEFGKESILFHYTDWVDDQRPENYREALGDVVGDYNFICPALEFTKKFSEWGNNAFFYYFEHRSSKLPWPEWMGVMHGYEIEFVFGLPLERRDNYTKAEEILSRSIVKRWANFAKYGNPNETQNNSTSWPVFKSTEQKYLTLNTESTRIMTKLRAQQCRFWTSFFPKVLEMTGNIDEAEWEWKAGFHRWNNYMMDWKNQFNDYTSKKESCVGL
Description: Inhibition of human serum BuChE using butyrylthiocholine iodide as substrate incubated for 10 mins followed by substrate addition and measured after 10 mins by DTNB reagent based Ellman's method

[3] = target: T1, Acetylcholinesterase; experiment: Pseudo-irreversible inhibition of human erythrocyte AChE at 4 times IC50 preincubated for 20 mins followed by dialysis and measured after 12 hrs; assay type: cell-based
[4] = target: T2, Cholinesterase; experiment: Pseudo-irreversible inhibition of human serum BuChE using butyrylthiocholine iodide as substrate at 4 times IC50 preincubated for 20 mins followed by dialysis and measured after 12 hrs by DTNB reagent based Ellman's method
[5] = Cytotoxicity against rat PC-12 cells assessed as cell viability at 10 uM incubated for 24 hrs by CCK-8 assay relative to control; assay type: toxicity, cell-based; settings: read-out: Activity
[6] = tested on: BV-2; experiment: Cytotoxicity against mouse BV-2 cells assessed as reduction in cell viability at 5 uM incubated for 24 hrs by CCK-8 assay; assay type: toxicity, cell-based; settings: bv-2, 24 h
[7] = tested on: BV-2; experiment: Antineuroinflammatory activity in LPS-induced mouse BV-2 cells assessed as increase in IL-4 level at 1.25 to 5 uM incubated for 24 hrs by ELISA; assay type: functional, cell-based; settings: dose 1.25-5 µM
[8] = tested on: PC-12; experiment: (§1) Neuroprotective activity against H2O2-induced rat PC-12 cells assessed as protection against H2O2-induced apoptosis by measuring live cells at 10 uM pretreated for 1 hr followed by H2O2 addition and measured after 24 hrs by Annexin V-FITC/PI staining based flow cytometry analysis (reference value: 63.2%); assay type: functional; settings: time 25 hrs
[9] = tested on: PC-12; experiment: as §1, with “late apoptotic” for “live”, “7.97%)” for “63.2%)”; assay type: functional; settings: time 25 hrs
[10] = tested on: PC-12; experiment: Inhibition of H2O2 induced ROS production in rat PC-12 cells assessed as reduction in intracellular ROS level at 10 uM pretreated for 1 hr followed by H2O2 stimulation and measured after 24 hrs by confocal microscopic analysis; assay type: functional, cell-based; settings: time 25.0 hrs

T1 sequence (P22303 whole entry): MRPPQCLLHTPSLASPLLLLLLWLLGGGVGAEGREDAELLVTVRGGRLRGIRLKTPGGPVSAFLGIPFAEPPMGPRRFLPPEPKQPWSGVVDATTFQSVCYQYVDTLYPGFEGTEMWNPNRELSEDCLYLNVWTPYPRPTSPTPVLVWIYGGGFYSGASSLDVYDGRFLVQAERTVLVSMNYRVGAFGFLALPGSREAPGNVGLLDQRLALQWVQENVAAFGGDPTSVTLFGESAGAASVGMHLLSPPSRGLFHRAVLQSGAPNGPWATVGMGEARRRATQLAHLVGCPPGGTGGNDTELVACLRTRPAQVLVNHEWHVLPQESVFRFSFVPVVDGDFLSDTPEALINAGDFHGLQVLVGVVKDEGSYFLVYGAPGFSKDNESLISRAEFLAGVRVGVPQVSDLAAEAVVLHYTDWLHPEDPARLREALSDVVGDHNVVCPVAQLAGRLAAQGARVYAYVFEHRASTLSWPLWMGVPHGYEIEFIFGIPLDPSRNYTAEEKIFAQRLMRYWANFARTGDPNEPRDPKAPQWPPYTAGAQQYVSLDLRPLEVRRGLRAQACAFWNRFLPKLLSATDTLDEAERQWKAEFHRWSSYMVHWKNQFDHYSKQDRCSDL

Structure (SMILES)	IC50 [1] [nM]	IC50 [2] [nM]	other results
C[C@@H](c1cccc(OC(=O)NCCCCCCNc2c3c(nc4cc(F)ccc24)CCCC3)c1)N(C)C	42.2	11	
O=C(NCCCCCCNc1c2c(nc3cc(Cl)ccc13)CCCC2)Oc1ccc2cc[nH]c2c1	153	64.4	
CCN(C)C(=O)Oc1cccc([C@H](C)N(C)C)c1			inhibition [3]: Active; inhibition [4]: Active
C[C@@H](c1cccc(OC(=O)NCCCCCNc2c3c(nc4cc(Cl)ccc24)CCCC3)c1)N(C)C	8.28	26.9	
C[C@@H](c1cccc(OC(=O)NCCNc2c3c(nc4ccccc24)CCCC3)c1)N(C)C	252	> 10000	
O=C(NCCCCCCNc1c2c(nc3ccccc13)CCCC2)Oc1ccc2cc[nH]c2c1	382	76.5	
O=C(NCCCCNc1c2c(nc3ccccc13)CCCC2)Oc1ccc2cc[nH]c2c1	510	1.35	
O=C(NCCCCCNc1c2c(nc3cc(F)ccc13)CCCC2)Oc1ccc2cc[nH]c2c1	273	40	
O=C(NCCCNc1c2c(nc3ccccc13)CCCC2)Oc1ccc2cc[nH]c2c1	552	7.23	
O=C(NCCCCCNc1c2c(nc3cc(Cl)ccc13)CCCC2)Oc1ccc2cc[nH]c2c1	248	48.6	viability at 24 h, 10 µM [5]: > 90%; Activity [6]: Toxic
C[C@@H](c1cccc(OC(=O)NCCCCCCNc2c3c(nc4cc(Br)ccc24)CCCC3)c1)N(C)C	56	9.65	
C[C@@H](c1cccc(OC(=O)NCCCCCNc2c3c(nc4cc(Br)ccc24)CCCC3)c1)N(C)C	47.7	21.6	
O=C(NCCCCCNc1c2c(nc3cc(Cl)ccc13)CCCC2)Oc1ccc(-c2cc3cccnc3[nH]2)cc1	23.1	1660	
O=C(NCCCCNc1c2c(nc3ccccc13)CCCC2)Oc1ccc(-c2cc3cccnc3[nH]2)cc1	205	20.5	viability at 24 h, 10 µM [5]: > 90%; Activity [6]: Non-Toxic; Activity [7]: Active; Activity [8]: 77.2%; Activity [9]: 2.92%; inhibition [10]: Active
O=C(NCCCCCNc1c2c(nc3cc(Br)ccc13)CCCC2)Oc1ccc(-c2cc3cccnc3[nH]2)cc1	59.1	791	
Oc1ccc(/C=C/c2cc(O)cc(O)c2)cc1 [RESVERATROL]			Activity [8]: 87.3%; Activity [9]: 1.4%
O=C(NCCCCCNc1c2c(nc3cc(F)ccc13)CCCC2)Oc1ccc(-c2cc3cccnc3[nH]2)cc1	152	334	
